This note sets out measurements from patent US5001223A, “Parathyroid hormone antagonists with enhanced metabolic properties” (Merck & Co., Inc., priority 1989, dated 1991).

The target in the experiment is T1, parathyroid hormone cell surface receptor (bovine renal cortical plasma membranes) (Bos taurus, UniProt Q1LZF7).
T1 construct: from tissue; host or cells: bovine renal cortex plasma membranes
T1 sequence (Q1LZF7 29-589): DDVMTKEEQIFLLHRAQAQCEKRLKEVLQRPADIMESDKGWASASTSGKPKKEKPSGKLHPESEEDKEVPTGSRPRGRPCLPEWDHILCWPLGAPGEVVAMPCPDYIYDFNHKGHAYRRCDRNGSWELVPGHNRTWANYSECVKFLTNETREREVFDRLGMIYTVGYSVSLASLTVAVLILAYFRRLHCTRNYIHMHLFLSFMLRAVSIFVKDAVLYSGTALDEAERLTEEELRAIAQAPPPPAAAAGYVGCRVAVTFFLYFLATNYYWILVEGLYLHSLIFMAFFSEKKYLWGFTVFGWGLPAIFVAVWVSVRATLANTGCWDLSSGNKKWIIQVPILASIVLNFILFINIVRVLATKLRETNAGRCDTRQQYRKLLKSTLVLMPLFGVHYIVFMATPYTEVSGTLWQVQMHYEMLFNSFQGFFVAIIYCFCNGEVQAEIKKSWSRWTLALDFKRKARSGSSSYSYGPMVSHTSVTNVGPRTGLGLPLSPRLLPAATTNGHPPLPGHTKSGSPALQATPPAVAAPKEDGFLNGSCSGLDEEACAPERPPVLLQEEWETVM
The experiment can be described thus: PTH binding assay (receptor assay, radioligand [Nle^8,18,^125 I-Tyr^34 ]bPTH(1-34)NH2). The settings on record: radioligand 25,000 cpm, Tris-containing buffer, 30 min. at 21° C. The protocol: PTH analogues were analysed in a new receptor assay which modified the assay reported in Rosenblatt et al., Endocrin. 107: 545-550 (1980). The binding assay used [Nle^8,18,^125 I-Tyr^34 ]bPTH(1-34)NH2which was purified by HPLC (Novapak C18, 32-35% CH3 CN in 0.1% TFA) and was stored as aliquots in 25 mM TrisHCl/1% BSA at -70° C. Bovine renal cortical plasma membranes were incubated with radioligand (25,000 cpm) in a Tris-containing buffer (250 ul) for 30 min. at 21° C. Once equilibrium was reached, bound and free radioligand were separated by centrifugation. High specific binding (85%) to bovine renal cortical membranes was obtained consistently.

What is called Ki is a dissociation constant, usually derived from enzyme kinetics or from competition with a known ligand. The low end stands for higher affinity, the high end for lower affinity. In the case of `CN[C@@H](Cc1ccccc1)C(=O)N[C@@H](CCSC)C(=O)N[C@@H](Cc1c[nH]cn1)C(=O)N[C@@H](CC(N)=O)C(=O)N[C@@H](CC(C)C)C(=O)NCC(=O)N[C@@H](CCCCN)C(=O)N[C@@H](Cc1c[nH]cn1)C(=O)N[C@@H](CC(C)C)C(=O)N[C@@H](CO)C(=O)N[C@@H](CO)C(=O)N[C@@H](CCSC)C(=O)N[C@@H](CCC(=O)O)C(=O)N[C@@H](CCCNC(=N)N)C(=O)N[C@H](C(=O)N[C@@H](CCC(=O)O)C(=O)N[C@@H](Cc1c[nH]c2ccccc12)C(=O)N[C@@H](CC(C)C)C(=O)N[C@@H](CCCNC(=N)N)C(=O)N[C@@H](CCCCN)C(=O)N[C@@H](CCCCN)C(=O)N[C@@H](CC(C)C)C(=O)N[C@@H](CCC(N)=O)C(=O)N[C@@H](CC(=O)O)C(=O)N[C@H](C(=O)N[C@@H](Cc1c[nH]cn1)C(=O)N[C@@H](CC(N)=O)C(=O)N[C@@H](Cc1ccc(O)cc1)C(N)=O)C(C)C)C(C)C` [[NMePhe^7,Tyr^34]bPTH(7-34)NH2], the inhibitory constant (Ki) is 82 ± 14 nM.
